Source: patent EP0333028A1, “1-Substituted 4-pentafluorophenoxypiperidines, a process for their preparation and their use as medicaments” (HOECHST-ROUSSEL PHARMACEUTICALS INCORPORATED, priority 1988, dated 1989)

Assays:
Type in all cases: in vivo
[1] = system: male mice (Charles River, CD-1); experiment: tetrabenazine induced ptosis assay (TBZ); details: Mus musculus, ip, 50% inhibition of tetrabenazine-induced ptosis, read-out: Antidepressant Activity TBZ ED₅₀
Description: The compounds of this invention are also useful as antidepressants by virtue of their ability to elicit an antidepressant response in mammals. […] In the tetrabenazine induced ptosis assay, male mice (Charles River, CD-1), weighing 20 to 39 g, are used in test groups of five animals. Test compounds are dissolved, or suspended with 1 drop of Tween-80, in distilled water and administered to the animals in volumes of 10 cc per kg of body weight. Tetrabenazine methanesulfonate (76.78% as the free base) is dissolved in distilled water and the concentration of the solution is adjusted so that the dose, administered intraperitoneally (i.p.) to the animals, is 40 mg of tetrabenazine base per kg of animal body weight. The test compound is administered intraperitoneally (i.p.) or perorally (p.o.) to the subject animals, and the tetrabenazine solution is administered 30 minutes or 60 minutes, respectively, thereafter. […] The subject animals are placed in individual plastic containers of the size 26.7 cm x 20.3 cm x 15.2 cm (10.1/2" x 8" x 6") thirty (i.p.) and sixty minutes (p.o.) after administration of the tetrabenazine solution, and one minute thereafter, the animals scored for ptosis on the following scale: [table] […] The results are discarded and the test is repeated, if the control score is determined to be less than 17. […]

[2] = system: male mice (Charles River, CD-1); experiment: supramaximal electroshock (SES) assay; details: Mus musculus, ip, protection against extensor tonus after electroshock, read-out: Anticonvulsant Activity SES ED₅₀
Description: (§1) The compounds of this invention are useful as anticonvulsants due to their anticonvulsant activity in mammals. Anticonvulsant activity is measured in male mice using the supramaximal electroshock (SES) assay described in Arch. Int. Pharmacodyn. 92, pp. 97-107, (1952) and the metrazol lethality assay (MTZ) described in J. Pharmacol. Exp. Ther., 81, 402 (1944).
Groups of male mice (Charles River, CD-1) weighing 18 to 30 g are employed in the SES assay. Test compounds are dissolved in distilled water, or if insoluble, suspended in water containing one drop of a surfactant, such as Tween-80. Test compounds are generally administered intraperitoneally at a dose of 10 ml of solution, or suspension, per kg of animal body weight. The output terminals of an A.C. shocker, which delivers 206 volts rms for 300 msec, are placed across the animals' eyes, an electrode paste coating assuring contact of the terminals with the eyes. The test compound is administered and thereafter the subject animals are shocked.
Protection is expressed as normalized percent inhibition relative to vehicle control. [formula] A time response is carried out using 6 animals per group. Animals are tested at 30, 60 and 120 minutes post drug. Additional time periods are tested if indicated by previous tests. A dose range determination is generally reserved for those compounds which inhibit convulsions by greater than about 45-55% at the screening dose employed at the time the test was performed. When the peak activity time has been determined, a dose response is initiated, using 10 animals per group at that time period.

[3] = system: male mice (Charles River, CD-1); experiment: Metrazol lethality assay (MTZ); details: Mus musculus, po, protection against Metrazol lethality, read-out: Anticonvulsant Activity MTZ ED₅₀
Description: as §1
Groups of male mice (Charles River, CD-1), weighing 18 to 30 grams are employed in the Metrazol lethality assay. Test compounds are dissolved in distilled water or if insoluble, suspended in water, to which a surfactant, such as Tween-80 is added. The test compounds are administered orally, the administered dose being dissolved or suspended in 10 ml of solution or suspension per kg of animal body weight. Control aminals (2 mice/group) receive water or water and Tween-80, i.e., the vehicle for administration of the test compound. Metrazol (pentylenetetrazol) is dissolved in water (concentration 225 mg of Metrazol/10 ml of solution), and the solution is administered subcutaneously to groups of five animals each at one or more time intervals of 15, 30, 60, 90, or 120 minutes after administration of the test compound. The number of animal alive 15 minutes after treatment with Metrazol is determined and recorded. The following formula is employed to calculate the percent protection against Metrazol lethality. [formula]
A dose range determination is performed by substantially the same procedure as the time response determination. In the dose range determination, five groups of 10 animals per group are employed. This determination is generally reserved for those compounds which protect against lethality by greater than 70% at the screening dose employed.

[4] = system: spontaneous hypertensive rat; experiment: antihypertensive activity, indirect tail cuff method (SHR); details: 50 mg/kg p.o. for three days, measured on the third day, decrease in mean arterial blood pressure
Description: In this procedure a group of five animals is treated orally for three days with the test compound in relation to a control group of the same number. The drop in blood pressure is measured on the third day following administration. […]

| SMILES | ED50 [1] [mg/kg] | ED50 [2] [mg/kg] | ED50 [3] [mg/kg] | mm dec. in blood pressure at 50 mg/kg p.o. [4] [mm Hg] |
| --- | --- | --- | --- | --- |
| CN(C)CCC=C1c2ccccc2CCc2ccccc21 [Amitriptyline, reference compound] | 1.5 | – | – | – |
| CNC(=O)N1CCC(Oc2c(F)c(F)c(F)c(F)c2F)CC1 [Example 1, 1-[(N-Methylamino)carbonyl]-4-(2,3,4,5,6-pentafluorophenoxy)piperidine] | 11.3 | 62.5 | 35.9 | – |
| CN(C)C(=O)N1CCC(Oc2c(F)c(F)c(F)c(F)c2F)CC1 [Example 2, 1-[(N,N-Dimethylamino)carbonyl]-4-(2,3,4,5,6-pentafluorophenoxy)piperidine] | – | 50.2 | 40.4 | – |
| CC(=O)N1CCC(Oc2c(F)c(F)c(F)c(F)c2F)CC1 [Example 6, 1-Acetyl-4-(2,3,4,5,6-pentafluorophenoxy)piperidine] | – | – | – | 36 |
| NC(=O)N1CCC(Oc2c(F)c(F)c(F)c(F)c2F)CC1 [Example 7, 1-Aminocarbonyl-4-(2,3,4,5,6-pentafluorophenoxy)piperidine] | – | – | – | 39 |
| N=C(N)NCCN1CCCCCCC1 [Guanethidine, reference compound] | – | – | – | 20 |
| CCC1(c2ccccc2)C(=O)NC(=O)NC1=O [Phenobarbital, reference compound] | – | 8.4 | 16.9 | – |
